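Test compounds were applied to cells in 96-well plates for 48 hours at 5 doses. TGI: total growth inhibition.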
Legend:
Experiment in all cases: NCI tumour cell line growth inhibition, 48 h
SK-OV-3 ovarian = system: SK-OV-3 ovarian
M14 melanoma = system: M14 melanoma
SR leukemia = system: SR leukemia
KM12 colon = system: KM12 colon
PC-3 prostate = system: PC-3 prostate
SK-MEL-2 melanoma = system: SK-MEL-2 melanoma
EKVX NSCLC = system: EKVX NSCLC
MDA-N = system: MDA-N
DU-145 prostate = system: DU-145 prostate
MALME-3M melanoma = system: MALME-3M melanoma
UACC-257 melanoma = system: UACC-257 melanoma
A549 NSCLC = system: A549 NSCLC
HT29 colon = system: HT29 colon
NCI-H23 lung = system: NCI-H23 lung
TK-10 renal = system: TK-10 renal

Row | SMILES | TGI (SK-OV-3 ovarian) [µM] | TGI (M14 melanoma) [µM] | TGI (SR leukemia) [µM] | TGI (KM12 colon) [µM] | TGI (PC-3 prostate) [µM] | TGI (SK-MEL-2 melanoma) [µM] | TGI (EKVX NSCLC) [µM] | TGI (MDA-N) [µM] | TGI (DU-145 prostate) [µM] | TGI (MALME-3M melanoma) [µM] | TGI (UACC-257 melanoma) [µM] | TGI (A549 NSCLC) [µM] | TGI (HT29 colon) [µM] | TGI (NCI-H23 lung) [µM] | TGI (TK-10 renal) [µM]
1 | COc1ccccc1-n1nnc2c(N)nc(N)nc21 | > 100 | > 100 | > 100 | > 100 | > 100 | > 100 | > 100 | > 100 | > 100 | > 100 | > 100 | > 100 | > 100 | > 100 | > 100
2 | O[C@@]1(C#Cc2ccc3c(c2)OCO3)CCC[C@H]1NCc1ccccc1 | > 100 | 29.2 | 50.7 | 42.7 | 51.3 | 31.9 | > 100 | 32.5 | > 100 | 29.6 | 63.9 | > 100 | 44.9 | > 100 | 70.6
3 | COC(=O)[C@@H]1C[C@@H](O)CN1C(=O)c1ccc([N+](=O)[O-])cc1[N+](=O)[O-] | > 100 | > 100 | > 100 | > 100 | > 100 | > 100 | > 100 | > 100 | > 100 | – | > 100 | > 100 | > 100 | > 100 | > 100
4 | Cc1ccc(Sc2ccccc2C23OC(C)(C4C(=O)N(c5ccccc5)C(=O)C42)N(C)C3=O)cc1 (stereo unspecified) | > 100 | > 100 | > 100 | > 100 | > 100 | > 100 | > 100 | > 100 | > 100 | > 100 | > 100 | > 100 | > 100 | > 100 | > 100
5 | COC(=O)[C@@H]1CN(C(=O)CCc2ccccc2)C(=O)N1 | > 100 | > 100 | > 100 | > 100 | > 100 | > 100 | > 100 | > 100 | > 100 | > 100 | > 100 | > 100 | > 100 | > 100 | > 100
6 | O=Cc1ccc2ccocc1-2 | > 100 | > 100 | > 100 | > 100 | > 100 | > 100 | > 100 | > 100 | > 100 | – | > 100 | > 100 | > 100 | > 100 | > 100
7 | COc1ccc(Cc2cc(Cc3ccc(OC)cc3)cc(Cc3ccc(OC)cc3)c2)cc1 | > 100 | > 100 | > 100 | > 100 | > 100 | > 100 | > 100 | > 100 | > 100 | > 100 | > 100 | > 100 | > 100 | – | > 100
8 | C=C1N(S(=O)(=O)c2ccc(C)cc2)C(=O)OCC12CCCC2 | > 100 | > 100 | > 100 | > 100 | > 100 | – | > 100 | > 100 | > 100 | > 100 | > 100 | > 100 | > 100 | > 100 | > 100
